This assay deals with IgE antibodies from patients. Briefly: Wheat epitope mapping (2): overlapping 10-amino-acid peptide fragments shifted by one amino acid.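 On Rank of partial sequence as epitope binding to IgE antibody: key = sequence deemed particularly important within the common 15-residue sequence.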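 On epitope sequence binding to IgE antibody, rank (Key/Preferably/More preferably): key of grades: preferably = shorter partial sequence still acting as epitope; more preferably = sequence improving IgE binding; key = particularly important sequence.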 It is filed as binding, human. An outline of the steps: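 Residual binding was banded as <30% none, 30–<50% poor, 50–<70% somewhat poor and ≥70% retained, relative to the parent overlapping sequence set to 100%. Values were chemiluminescent IgE signals from patient sera after subtracting secondary-antibody-only controls. The peptides were spot-synthesised 10-mers shifted by one amino acid.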

Where [1] appears, read: serum of patient P21 (WDEIA), sequence without X.
The mark [2] stands for this setting: serum of patient G1 (adult, general immediate type allergy to wheat), sequence without X.
[3] abbreviates: serum of patient P14 (WDEIA), sequence without X.
[4] abbreviates: serum of patient P22 (WDEIA), sequence without X.
The mark [5] stands for this setting: serum of patient P8 (WDEIA), sequence without X.
[6] abbreviates: serum of patient P27 (WDEIA), sequence without X.

In the case of “1542 (QVPLVQQQQ; REGION 1..9: note = epitope) [compound 1542]”, the “Rank of partial sequence as epitope binding to IgE antibody” value (shortened to “Rank of partial sequence”) under setting [1] is on record as “More preferably”.

On to “2308 (ERFEK; REGION 1..5: note = epitope) [compound 2308]”, for which the “Epitope sequence binding to IgE antibody, rank of the sequence (Key/Preferably/More preferably)” value (serum of patient G9 (adult, general immediate type allergy to wheat), sequence without X) is recorded as “Key”.

“2261 (LLRGIRNYRV; REGION 1..10: note = epitope) [compound 2261]”: the “Epitope sequence binding to IgE antibody, rank of the sequence (Key/Preferably/More preferably)” value under setting [2] was “Key”.

As for “1701 (EAANFT; REGION 1..6: note = epitope) [compound 1701]”, the “Rank of partial sequence” value (serum of patient P25 (WDEIA), sequence without X) is “Key”.

For the substance “1427 (YLQPQQPISQ; REGION 1..10: note = epitope) [compound 1427]”, the “Rank of partial sequence” value under setting [3] is recorded as “More preferably”.

As to “2731 (YKIGGI; REGION 1..6: note = epitope) [compound 2731]”, the “Epitope sequence binding to IgE antibody, rank of the sequence” value (serum of patient P28 (WDEIA), partial sequence) is on record as “Key”.

As for “1195 (QFPPQQPYPQ; REGION 1..10: note = epitope) [compound 1195]”, under setting [4], the “Epitope sequence binding to IgE antibody, rank of the sequence” value was “Key”.

On to “2395 (TEIV; REGION 1..4: note = epitope) [compound 2395]”, for which the “Epitope sequence binding to IgE antibody, rank of the sequence (Key/Preferably/More preferably)” value (serum of patient P34 (WDEIA), sequence without X) is “Key”.

Regarding “1784 (LKKVGYNP; REGION 1..8: note = epitope) [compound 1784]”, the “epitope sequence binding to IgE antibody, rank (Key/Preferably/More preferably)” value (serum of patient G5 (adult, general immediate type allergy to wheat)) is reported as “Key”.

“1825 (LPKF; REGION 1..4: note = epitope) [compound 1825]”: the “epitope sequence binding to IgE antibody, rank (Key/Preferably/More preferably)” value (serum of patient P52 (child, general immediate type allergy to wheat)) is on record as “Key”.

For “2553 (QLVQ; REGION 1..4: note = epitope) [compound 2553]”, where the note is “serum of patient P7 (WDEIA), partial sequence”, the “Epitope sequence binding to IgE antibody, rank of the sequence” value is “Key”.

As for “1436 (LQPQQP; REGION 1..6: note = epitope) [compound 1436]”, the “Rank of partial sequence” value (serum of patient P16 (WDEIA), sequence without X) is “Key”.

With “2501 (SFQPSQLNPQ; REGION 1..10: note = epitope) [compound 2501]”, the “Epitope sequence binding to IgE antibody, rank of the sequence” value (serum of patient P8 (WDEIA), partial sequence) is “Key”.

Regarding “1200 (QQFPGQQQQ; REGION 1..9: note = epitope) [compound 1200]”, the “Epitope sequence binding to IgE antibody, rank of the sequence” value (serum of patient P28 (WDEIA), sequence without X) is reported as “Key”.

Regarding “1873 (TVRTLQR; REGION 1..7: note = epitope) [compound 1873]”, where the note is “serum of patient P30 (WDEIA)”, the “epitope sequence binding to IgE antibody, rank (Key/Preferably/More preferably)” value is “Key”.

On to “1860 (TVRTLQ; REGION 1..6: note = epitope) [compound 1860]”, for which the “epitope sequence binding to IgE antibody, rank (Key/Preferably/More preferably)” value (serum of patient P19 (WDEIA)) is on record as “Key”.

Take “1180 (QQFPP; REGION 1..5: note = epitope) [compound 1180]”: the “Epitope sequence binding to IgE antibody, rank of the sequence” value (serum of patient P12 (WDEIA), sequence without X) is given as “Key”.

Take “1445 (YLQPQ; REGION 1..5: note = epitope) [compound 1445]”: the “Rank of partial sequence” value under setting [1] is listed as “Key”.

Consider “2611 (QSTYQLVQQL; REGION 1..10: note = epitope) [compound 2611]”, for which the “Epitope sequence binding to IgE antibody, rank of the sequence” value (serum of patient G9 (adult, general immediate type allergy to wheat), partial sequence) is “Key”.

Regarding “1358 (VEDNRRALR; REGION 1..9: note = epitope) [compound 1358]”, under “serum of patient P36 (WDEIA), sequence without X”, the “Epitope sequence binding to IgE antibody, rank of the sequence” value is reported as “Preferably”.

On to “1216 (PQQPP; REGION 1..5: note = epitope) [compound 1216]”, for which, under “serum of patient P7 (WDEIA), sequence without X”, the “Epitope sequence binding to IgE antibody, rank of the sequence” value is listed as “Preferably”.

For the substance “1838 (RTLQ; REGION 1..4: note = epitope) [compound 1838]”, the “epitope sequence binding to IgE antibody, rank (Key/Preferably/More preferably)” value (serum of patient P3 (WDEIA)) is on record as “Key”.

For the substance “2616 (AKPLL; REGION 1..5: note = epitope) [compound 2616]”, the “Epitope sequence binding to IgE antibody, rank of the sequence” value (serum of patient P24 (WDEIA), partial sequence) is recorded as “Key”.

Take “1826 (PKFL; REGION 1..4: note = epitope) [compound 1826]”: the “epitope sequence binding to IgE antibody, rank (Key/Preferably/More preferably)” value (serum of patient G1 (adult, general immediate type allergy to wheat)) was “Key”.

For the substance “1333 (INVEN; REGION 1..5: note = epitope) [compound 1333]”, the “Epitope sequence binding to IgE antibody, rank of the sequence” value under setting [4] is given as “Key”.

In the case of “2273 (GIDKRV; REGION 1..6: note = epitope) [compound 2273]”, the “Epitope sequence binding to IgE antibody, rank of the sequence (Key/Preferably/More preferably)” value under setting [5] is recorded as “Key”.

Turning to “2345 (YVTEIVL; REGION 1..7: note = epitope) [compound 2345]”, the “Epitope sequence binding to IgE antibody, rank of the sequence (Key/Preferably/More preferably)” value (serum of patient P9 (WDEIA), sequence without X) was “More preferably”.

In the case of “1464 (QQPISQQQA; REGION 1..9: note = epitope) [compound 1464]”, the “Rank of partial sequence” value (serum of patient P24 (WDEIA), sequence without X) is recorded as “More preferably”.

Turning to “1615 (YNPD; REGION 1..4: note = epitope) [compound 1615]”, where the note is “serum of patient P17 (WDEIA), sequence without X”, the “Rank of partial sequence” value was “Key”.

As for “1940 (VPLVQ; REGION 1..5: note = epitope) [compound 1940]”, under “serum of patient P21 (WDEIA)”, the “epitope sequence binding to IgE antibody, rank (Key/Preferably/More preferably)” value is reported as “Key”.

For the substance “1680 (YNPDKVPF; REGION 1..8: note = epitope) [compound 1680]”, the “Rank of partial sequence” value (serum of patient G6 (adult, general immediate type allergy to wheat), sequence without X) is on record as “More preferably”.

Take “1307 (NVEN; REGION 1..4: note = epitope) [compound 1307]”: under setting [5], the “Epitope sequence binding to IgE antibody, rank of the sequence” value is given as “Key”.

Consider “1454 (QQPISQQQAQ; REGION 1..10: note = epitope) [compound 1454]”, for which the “Rank of partial sequence” value under setting [4] is given as “More preferably”.

Turning to “2640 (RFEKEAAEMN; REGION 1..10: note = epitope) [compound 2640]”, for the setting “serum of patient P14 (WDEIA), partial sequence”, the “Epitope sequence binding to IgE antibody, rank of the sequence” value is “Preferably”.

As for “1898 (QQFPGQQQ; REGION 1..8: note = epitope) [compound 1898]”, the “epitope sequence binding to IgE antibody, rank (Key/Preferably/More preferably)” value (serum of patient P2 (WDEIA)) is given as “Key”.

In the case of “1967 (VPLVQQQ; REGION 1..7: note = epitope) [compound 1967]”, under “serum of patient P34 (WDEIA)”, the “epitope sequence binding to IgE antibody, rank (Key/Preferably/More preferably)” value is “Key”.

For the substance “2304 (DKRVIERFE; REGION 1..9: note = epitope) [compound 2304]”, the “Epitope sequence binding to IgE antibody, rank of the sequence (Key/Preferably/More preferably)” value (serum of patient G7 (adult, general immediate type allergy to wheat), sequence without X) is listed as “Key”.

With “1628 (YNPDKVP; REGION 1..7: note = epitope) [compound 1628]”, under setting [6], the “Rank of partial sequence” value is given as “Preferably”.

As to “1415 (YLQPQQPIS; REGION 1..9: note = epitope) [compound 1415]”, the “Epitope sequence binding to IgE antibody, rank of the sequence” value (serum of patient P4 (WDEIA), sequence without X) is recorded as “Key”.

Consider “2735 (GIGTVPVGRV; REGION 1..10: note = epitope) [compound 2735]”, for which, for the setting “serum of patient P29 (WDEIA), partial sequence”, the “Epitope sequence binding to IgE antibody, rank of the sequence” value is on record as “Key”.

As for “1661 (FVPISG; REGION 1..6: note = epitope) [compound 1661]”, the “Rank of partial sequence” value under setting [2] is listed as “Key”.

Take “1611 (YNPD; REGION 1..4: note = epitope) [compound 1611]”: the “Rank of partial sequence” value under setting [5] was “Key”.

Regarding “1881 (TVRTLQR; REGION 1..7: note = epitope) [compound 1881]”, the “epitope sequence binding to IgE antibody, rank (Key/Preferably/More preferably)” value (serum of patient P33 (WDEIA)) is “Key”.

Turning to “1823 (LPKFL; REGION 1..5: note = epitope) [compound 1823]”, the “epitope sequence binding to IgE antibody, rank (Key/Preferably/More preferably)” value (serum of patient P35 (WDEIA)) is “Key”.

As for “2709 (YKIGGIGT; REGION 1..8: note = epitope) [compound 2709]”, the “Epitope sequence binding to IgE antibody, rank of the sequence” value (serum of patient P16 (WDEIA), partial sequence) is recorded as “Preferably”.

As to “1866 (TVRTLQR; REGION 1..7: note = epitope) [compound 1866]”, the “epitope sequence binding to IgE antibody, rank (Key/Preferably/More preferably)” value (serum of patient P27 (WDEIA)) is recorded as “Key”.

As to “1557 (QVPLVQQQQF; REGION 1..10: note = epitope) [compound 1557]”, the “Rank of partial sequence” value (serum of patient P50 (child, general immediate type allergy to wheat), sequence without X) is reported as “More preferably”.

For “2250 (SRLLRGIRN; REGION 1..9: note = epitope) [compound 2250]”, the “Epitope sequence binding to IgE antibody, rank of the sequence (Key/Preferably/More preferably)” value (serum of patient P52 (child, general immediate type allergy to wheat), sequence without X) is listed as “Preferably”.

As for “1424 (SQQQA; REGION 1..5: note = epitope) [compound 1424]”, the “Epitope sequence binding to IgE antibody, rank of the sequence” value (serum of patient P10 (WDEIA), sequence without X) is recorded as “Key”.

As to “1447 (QQPISQQQ; REGION 1..8: note = epitope) [compound 1447]”, the “Rank of partial sequence” value under setting [1] is given as “Key”.

As for “1966 (QFPGQQ; REGION 1..6: note = epitope) [compound 1966]”, the “epitope sequence binding to IgE antibody, rank (Key/Preferably/More preferably)” value (serum of patient P33 (WDEIA)) was “Key”.

Take “2288 (KRVIERF; REGION 1..7: note = epitope) [compound 2288]”: the “Epitope sequence binding to IgE antibody, rank of the sequence (Key/Preferably/More preferably)” value under setting [6] is on record as “Key”.

As to “1385 (KPWQQQPLP; REGION 1..9: note = epitope) [compound 1385]”, the “Epitope sequence binding to IgE antibody, rank of the sequence” value under setting [3] is “Preferably”.
